Literature values, collected in patent publication US20030008844A1, “Use of sulodexide for the treatment of inflammatory bowel disease” (Keryx Biopharmaceuticals, Inc., priority 2001, published 2003).

Legend:
mild to moderate UC = details: oral
[1] = test system: steroid-dependent chronically active Crohn's disease; details: placebo-controlled trial
perianal Crohn's disease = details: uncontrolled trials
ulcerative colitis = details: placebo-controlled trial

For `O=C(O)c1cc(/N=N/c2ccc(S(=O)(=O)Nc3ccccn3)cc2)ccc1O` [sulfasalazine], the “efficacy in treatment of mild to moderate UC” value (mild to moderate UC) is given as “superior to placebo and similar or superior to steroid enemas”.
In the case of `CN(Cc1cnc2nc(N)nc(N)c2n1)c1ccc(C(=O)N[C@@H](CCC(=O)O)C(=O)O)cc1` [methotrexate, Methotrexate], the “rates of clinical remission” value [1] is listed as “substantially improved”.
In the case of `Cc1ncc([N+](=O)[O-])n1CCO` [metronidazole], the patients showing improvements (perianal Crohn's disease) is listed as “practically all patients showed improvements”.
In the case of `CN1CCCC1c1cccnc1` (stereo not shown) [nicotine, Nicotine], the “maintaining remission of ulcerative colitis” value (ulcerative colitis) is given as “ineffective”.
